Laboratory results taken from ChEMBL document CHEMBL1201862, “PubChem BioAssay data set” (2004).
Calls of active or inactive are those of the source. Rule as the data show it, for most assays here: actives have a measured EC50 and inactives only a lower limit.

What was measured:
[1] = Artemis endonuclease inhibitor potency, dose response, biochemical, fluorescence intensity (AID 720701); format: functional;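 also: Artemis endonuclease enzyme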
[2] = target: T1, Mannose-6-phosphate isomerase (Homo sapiens, UniProt P34949); test: human PMI inhibitors, high substrate, primary screen, biochemical, fluorescence intensity, high mannose 6-phosphate (AID 1220)
T1 sequence (P34949 whole entry): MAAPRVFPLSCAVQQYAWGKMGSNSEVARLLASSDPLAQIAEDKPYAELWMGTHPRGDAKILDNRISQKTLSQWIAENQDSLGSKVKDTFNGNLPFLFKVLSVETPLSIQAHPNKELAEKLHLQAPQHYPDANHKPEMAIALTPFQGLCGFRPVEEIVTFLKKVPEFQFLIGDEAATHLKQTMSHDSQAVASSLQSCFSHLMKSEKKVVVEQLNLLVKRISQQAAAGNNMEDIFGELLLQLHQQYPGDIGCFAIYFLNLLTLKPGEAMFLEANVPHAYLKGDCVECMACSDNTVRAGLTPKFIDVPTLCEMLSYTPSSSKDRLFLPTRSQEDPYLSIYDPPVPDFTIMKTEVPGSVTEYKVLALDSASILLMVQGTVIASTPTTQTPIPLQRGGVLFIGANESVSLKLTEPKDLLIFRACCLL

[3] = target: T1, Mannose-6-phosphate isomerase; test: inhibitors of human PMI, primary screen, biochemical, fluorescence intensity, coupled assay (AID 1209)
[4] = inhibitors of SNCA 5'UTR-driven reporter translation, confirmation, H4 neuroglioma cells, luminescence (AID 1988); format: functional, cell-based
[5] = test system: INS1; test: beta cell apoptosis inhibitors, cytokine rescue, dose response, luminescence, retest (AID 449756); format: functional, cell-based; conditions: Rattus norvegicus;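 also: cell death triggered by IL-1 beta plus TNF-alpha plus IFN-gamma mixture; protective hits raise ATP signal compared with cytokine alone wells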
[6] = inhibitors of firefly luciferase expression or activity, dose response, H4 neuroglioma cells, luminescence (AID 1990); format: functional, cell-based
[7] = cytotoxicity toward NIH3T3 fibroblasts, dose response, counter-screen, cell-based, ATP luminescence, mouse fibroblasts (AID 2010); format: functional;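 also: cells exposed to compound for about 90 hours before reading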
[8] = cells
[9] = Luminescence Cell-Based Dose Response HTS to Identify Inhibitors of 5'UTR Stem-Loop Driven Prion Protein mRNA Translation in H4 Neuroglioblastoma Cells. [Related pubchem assays: 1827 (Project Summary), 1813 (Primary HTS)]; format: functional
[10] = inhibitors of intracellular T. cruzi replication, confirmation, NIH3T3 host cells, beta-gal luminescence (AID 2044); format: functional, cell-based;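 also: intracellular parasites grown in NIH/3T3 mouse fibroblasts as host cells; luminescent beta-galactosidase reporter signal from transgenic T. cruzi replicating inside host cells; inhibitors lower the luminescence signal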
[11] = Luminescence Cell-Based Dose Response to Identify Activators of 5'UTR Stem-Loop Driven Prion Protein mRNA Translation in H4-C Neuroglioblastoma Cells. [Related pubchem assays: 1829 (Project Summary), 1814 (Primary HTS)]; format: functional
[12] = Luminescence Cell-Based Dose Response to Identify Activators of Luciferase Translation or Activity in H4-C Neuroglioblastoma Cells. [Related pubchem assays: 1829 (Project Summary), 1814 (Primary HTS)]; format: functional
[13] = test system: H4; test: Luminescence Cell-Based Dose Response HTS to Identify Activators of 5'UTR Stem-Loop Driven Prion Protein mRNA Translation in H4 Neuroglioblastoma Cells. [Related pubchem assays: 1829 (Project Summary), 1814 (Primary HTS)]; format: functional; conditions: Homo sapiens
[14] = Luminescence Cell-Based Dose Confirmation HTS to Identify Activators of 5'UTR Stem-Loop Driven Alpha-Synuclein mRNA Translation in H4 Neuroglioblastoma Cells. [Related pubchem assays: 1829 (Project Summary), 1814 (Primary HTS)]; format: functional
[15] = Luminescence Cell-Based Dose Response HTS to Identify Activators of Luciferase Translation or Activity in H4 […] Cells. [Related pubchem assays: 1829 (Project Summary), 1814 (Primary HTS)]; format: functional
[16] = Luminescence Cell-Based Dose Confirmation to Identify Activators of 5'UTR Stem-Loop Driven Alpha-Synuclein mRNA Translation in H4 Neuroglioblastoma Cells. [Related pubchem assays: 1829 (Project Summary), 1814 (Primary HTS)]; format: functional
[17] = target: Mitogen-activated protein kinase 10 (Homo sapiens, UniProt P53779); test: Dose response biochemical screening assay for inhibitors of c-Jun N-Terminal Kinase 3 (JNK3). [Related pubchem assays: 746 ]
[18] = target: Estrogen receptor beta (Homo sapiens, UniProt Q92731); test: ERβ–SRC-3 coactivator interaction inhibitors, confirmation, orthogonal assay, biochemical, ELISA, streptavidin-HRP readout (AID 1060)
[19] = target: T2, Estrogen receptor (Homo sapiens, UniProt P03372);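 also: potency for inhibiting coactivator peptide recruitment to the receptor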
T2 sequence (P03372 whole entry): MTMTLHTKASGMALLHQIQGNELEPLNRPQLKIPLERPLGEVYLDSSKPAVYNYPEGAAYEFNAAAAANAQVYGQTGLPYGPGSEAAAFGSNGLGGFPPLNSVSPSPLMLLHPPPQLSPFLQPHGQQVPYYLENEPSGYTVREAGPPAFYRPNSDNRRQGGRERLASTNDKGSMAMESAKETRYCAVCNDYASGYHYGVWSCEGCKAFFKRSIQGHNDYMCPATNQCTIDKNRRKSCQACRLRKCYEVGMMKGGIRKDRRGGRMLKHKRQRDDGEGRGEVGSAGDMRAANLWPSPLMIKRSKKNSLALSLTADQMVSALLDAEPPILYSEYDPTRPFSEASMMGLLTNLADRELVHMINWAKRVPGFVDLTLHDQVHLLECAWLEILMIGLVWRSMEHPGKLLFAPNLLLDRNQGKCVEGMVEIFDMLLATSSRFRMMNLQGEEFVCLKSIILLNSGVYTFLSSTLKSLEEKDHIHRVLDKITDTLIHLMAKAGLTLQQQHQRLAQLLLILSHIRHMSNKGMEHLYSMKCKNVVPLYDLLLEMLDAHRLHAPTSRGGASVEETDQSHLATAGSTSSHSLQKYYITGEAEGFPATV

[20] = test system: Streptococcus sp. 'group A'; test: growth inhibition of control SK(-) GAS strain, dose response, counter-screen for streptokinase expression inhibitor project, luminescence, kanamycin, BacTiterGlo, confirmation (AID 1900); format: functional, organism-based
[21] = target: T3, Streptokinase A (Streptococcus pyogenes serotype M1, UniProt P10520); test: S. pyogenes streptokinase expression inhibitors, potency, dose response, plasminogen activation absorbance, OD405 (AID 1914); format: functional, Streptococcus pyogenes M1 GAS;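 also: secreted streptokinase activity via plasminogen activation per viability signal from cell pellet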
T3 sequence (P10520 whole entry): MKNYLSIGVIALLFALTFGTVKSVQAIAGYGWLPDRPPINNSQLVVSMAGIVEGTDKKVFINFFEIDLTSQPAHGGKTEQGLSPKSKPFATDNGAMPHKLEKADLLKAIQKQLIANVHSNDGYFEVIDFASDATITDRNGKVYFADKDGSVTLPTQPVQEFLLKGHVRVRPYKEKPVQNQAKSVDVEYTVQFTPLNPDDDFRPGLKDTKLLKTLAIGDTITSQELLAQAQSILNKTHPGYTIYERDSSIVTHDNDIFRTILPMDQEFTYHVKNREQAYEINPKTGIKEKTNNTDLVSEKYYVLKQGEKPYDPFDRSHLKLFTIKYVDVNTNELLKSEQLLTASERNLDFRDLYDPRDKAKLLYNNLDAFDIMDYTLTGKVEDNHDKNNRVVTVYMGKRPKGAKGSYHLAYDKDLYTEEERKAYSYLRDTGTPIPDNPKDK

[22] = test system: Streptococcus; test: Group A Streptococcus viability loss, dose response, counter-screen for streptokinase expression inhibitor project, luminescence, BacTiterGlo (AID 1915); format: functional, organism-based;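 also: potency for reduction of bacterial viability or growth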

Sequence of Estrogen receptor beta (Q92731 whole entry): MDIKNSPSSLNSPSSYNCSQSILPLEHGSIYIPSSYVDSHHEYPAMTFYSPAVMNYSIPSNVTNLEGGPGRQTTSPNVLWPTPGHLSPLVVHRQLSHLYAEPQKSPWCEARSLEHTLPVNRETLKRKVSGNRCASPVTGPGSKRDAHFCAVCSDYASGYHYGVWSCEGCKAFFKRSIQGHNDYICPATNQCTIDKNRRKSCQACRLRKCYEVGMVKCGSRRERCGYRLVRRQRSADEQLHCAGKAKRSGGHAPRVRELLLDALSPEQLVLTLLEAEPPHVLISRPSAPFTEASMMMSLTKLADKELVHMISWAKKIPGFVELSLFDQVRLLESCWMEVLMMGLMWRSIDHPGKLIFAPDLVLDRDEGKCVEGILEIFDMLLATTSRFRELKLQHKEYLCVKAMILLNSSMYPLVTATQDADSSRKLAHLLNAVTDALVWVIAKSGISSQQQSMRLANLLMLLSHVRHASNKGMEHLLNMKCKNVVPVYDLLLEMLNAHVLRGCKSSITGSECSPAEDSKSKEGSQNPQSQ
Sequence of Mitogen-activated protein kinase 10 (P53779 whole entry): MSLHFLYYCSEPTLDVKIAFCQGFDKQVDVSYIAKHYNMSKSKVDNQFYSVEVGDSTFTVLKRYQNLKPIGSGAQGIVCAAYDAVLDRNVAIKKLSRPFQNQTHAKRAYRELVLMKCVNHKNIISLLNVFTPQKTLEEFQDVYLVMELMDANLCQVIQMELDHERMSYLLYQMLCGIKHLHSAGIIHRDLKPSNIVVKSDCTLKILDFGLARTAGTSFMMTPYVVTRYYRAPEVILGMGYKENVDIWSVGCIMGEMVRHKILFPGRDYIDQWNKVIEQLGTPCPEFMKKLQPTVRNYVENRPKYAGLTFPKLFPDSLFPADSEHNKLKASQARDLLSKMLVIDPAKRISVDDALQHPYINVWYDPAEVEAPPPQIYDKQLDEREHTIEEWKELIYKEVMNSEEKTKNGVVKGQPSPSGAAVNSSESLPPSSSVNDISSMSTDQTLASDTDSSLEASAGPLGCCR

With Cc1cc(C)c(C(N)=O)c(Nc2cccc3ccccc23)n1 the IC50 [1] was > 20 µM (inactive), the IC50 [2] was > 50 µM (not active) and the IC50 [3] was > 50 µM (not active).
With O=[N+]([O-])c1ccccc1-c1cc(-c2ccccc2)cc(-c2ccccc2)[n+]1Cc1ccccc1Cl.[O-][Cl+3]([O-])([O-])[O-] the EC50 [4] was > 120 µM (not active), the AC50 [5] was 2.14 µM (active) and the EC50 [6] was 11.3 µM (active). For the same compound, the EC50 [7] was > 60 µM (not active), the EC50 [8] was 0.074 µM (active) and the EC50 [9] was > 120 µM (not active). For the same compound, the EC50 [10] was < 0.1 µM (active).
For C1CCC(OCCN2CCN(CCOC3CCCCC3)CC2)CC1, the EC50 [7] was > 30 µM (not active), the EC50 [8] was 0.067 µM (active) and the EC50 [10] was < 0.1 µM (active).
In the case of C#CCSc1nnc(-c2ccc(OC)cc2)o1, the EC50 [11] is reported as 3.33 µM (active), the EC50 [12] is reported as 5.49 µM (active) and the EC50 [13] is reported as > 120 µM (not active). The EC50 [14] was 7.23 µM (active), the EC50 [15] was < 0.1 µM (inconclusive) and the EC50 [16] was 0.138 µM (active).
For O=C(NCCSc1ccccc1)c1ccccc1, the EC50 [11] was 0.281 µM (active), the EC50 [12] was 0.347 µM (active) and the EC50 [13] was > 120 µM (not active). For the same compound, the EC50 [15] was < 0.1 µM (inconclusive) and the EC50 [16] was 0.198 µM (active).
With Nc1ccc(-n2c(N)c(C(=O)NCc3ccc4c(c3)OCO4)c3nc4ccccc4nc32)cc1 the IC50 [17] was > 93.1 µM (not active).
For CC(=O)C(C(C)=O)c1c(Cl)c(O)c(O)c2c(C(=O)c3ccccc3)coc12, the IC50 [2] was > 50 µM (not active) and the IC50 [3] was > 50 µM (not active).
With N#CC1=C(N)OC2=C(CCC/C2=C/c2ccoc2)C1c1ccoc1 (stereo unspecified) the IC50 [18] was 3.99 µM (not active) and the IC50 [19] was 10 µM (active).
In the case of Cc1ccc(N2C(=O)CC(Sc3nc[nH]n3)C2=O)cc1 (stereo unspecified), the IC50 [3] is reported as > 50 µM (not active).
In the case of O=C(N/N=C/c1ccc([N+](=O)[O-])o1)c1cn(-c2ccccc2)nc1-c1ccc(F)cc1, the EC50 [20] is reported as 0.841 µM (active), the EC50 [7] is reported as > 60 µM (not active) and the EC50 [8] is reported as 0.03 µM (active). The EC50 [21] was > 150 µM (not active), the EC50 [22] was 2.99 µM (active) and the EC50 [10] was < 0.1 µM (active).
